Measured values from patent US12570618B2, “Compound, production method therefor, and pharmaceutical composition” (TOKYO UNIVERSITY OF SCIENCE FOUNDATION, priority 2021, dated 2026).

Legend:
[1] = test system: MCF-7 (Breast adenocarcinoma cell line); assay: cell proliferation inhibitory activity, WST-8 (Test Example 2); assay type: cell-based; conditions: Homo sapiens, MCF7, 48 h, MCF-7, 2 days with compound
Description: (§1) Compounds RS1 to RS7 obtained in Synthesis Examples 1 to 7, and M-COPA synthesized in the same manner as in Synthesis Example 1 in Patent Document 1 were examined for cell proliferation inhibitory activity against human cultured cancer cells. The cancer cells used were eight human cancer cell lines (one skin cancer cell line, one ovarian cancer cell line, one prostate cancer cell line, two lung adenocarcinoma cell lines, one colorectal cancer cell line, two breast adenocarcinoma cell lines). The cancer cells of each type were seeded on a 96-well plate and cultured for 2 days, and cultured for 2 days with addition of serially diluted products of the compounds, and the cell proliferation was then measured by colorimetry with a water-soluble tetrazolium salt (WST-8). Thereafter, 50% cell proliferation inhibitory concentrations (GI50) were calculated from the cell proliferation curves.

[2] = test system: H1650 (Lung adenocarcinoma cell line); assay: as above; assay type: cell-based; conditions: Homo sapiens, NCI-H1650, 48 h; H1650, 2 days with compound, WST-8, Table 2
Description: as §1

[3] = test system: Hs578t (Breast adenocarcinoma cell line); assay: as above; assay type: cell-based; conditions: Homo sapiens, Hs-578T, 48 h, 2 days with compound
Description: as §1

[4] = test system: DU-145 (Prostate cancer cell line); assay: as above; assay type: cell-based; conditions: Homo sapiens, 48 h, DU-145, 2 days with compound
Description: as §1

[5] = test system: DLD-1 (Colorectal cancer cell line); assay: as above; assay type: cell-based; conditions: Homo sapiens, 48 h, DLD-1, 2 days with compound
Description: as §1

[6] = test system: H2228 (Lung adenocarcinoma cell line); assay: as above; assay type: cell-based; conditions: Homo sapiens, NCI-H2228, 48 h; H2228, 2 days with compound, WST-8, Table 2
Description: as §1

[7] = test system: Hs925t (Skin cancer cell line); assay: as above; assay type: cell-based; conditions: Homo sapiens, 48 h, 2 days with compound
Description: as §1

[8] = test system: SK-OV3 (Ovarian cancer cell line); assay: as above; assay type: cell-based; conditions: Homo sapiens, SK-OV-3, 48 h, SK-OV3, 2 days with compound
Description: as §1

GIST-T1 cells = assay: cell proliferation inhibitory activity, ATP production (Test Example 1); assay type: cell-based, human; conditions: for IC50: Homo sapiens, GISTT1, 48 h, GIST-T1 cells (KIT^Δ560-578, imatinib-sensitive), cultured 2 days with compound, ATP production, n=3; for inhibition of cell proliferation (in words): GIST-T1 cells, FIG. 1
Description: (§2) Compounds RS1, RS2, and RS5 obtained in Synthesis Examples 1, 2, and 5, and M-COPA synthesized in the same manner as in Synthesis Example 1 in Patent Document 1 were examined for cell proliferation inhibitory activity against human cultured cancer cells with KIT tyrosine kinase mutation. The human cultured cancer cells used were GIST-T1 cells (KIT^Δ560-578. imatinib-sensitive) and GIST-R9 cells (KIV^Δ560-578/D820V, imatinib-resistant) as gastrointestinal stromal tumor cell lines, and HMC-1.2 cells (KIT^V560G/D816V, imatinib-resistant) as a mast cell leukemia cell line. The cancer cells of each type were seeded on a 96-well plate and cultured overnight, and cultured for 2 days with addition of serially diluted products of the compounds, and the cell proliferation was then measured by quantifying the ATP production (n=3). FIG. 1 to FIG. 3 show the cell proliferation curves for the GIST-T1 cells, GIST-R9 cells, and HMC-1.2 cells.

GIST-R9 cells = assay: as above; assay type: cell-based, human; conditions: for IC50: Homo sapiens, 48 h, GIST-R9 cells (KIV^Δ560-578/D820V, imatinib-resistant), cultured 2 days with compound, ATP production, n=3; for inhibition of cell proliferation (in words): GIST-R9 cells, FIG. 2
Description: as §2

HMC-1.2 cells = assay: as above; assay type: cell-based, human; conditions: for IC50: Homo sapiens, 48 h, HMC-1.2 cells (KIT^V560G/D816V, imatinib-resistant), cultured 2 days with compound, ATP production, n=3; for inhibition of cell proliferation (in words): HMC-1.2 cells, FIG. 3
Description: as §2

Compound: C/C(=C\C=C\[C@@H]1[C@H]2[C@H](C)[C@@H](O)[C@H](C)C[C@@H]2C=C[C@@H]1C)C(=O)NCc1cccnc1 [M-COPA, 2-methylcoprophilinamide, reference compound]
- GI50 [1]: 350 nM
- GI50 [2]: 80 nM
- GI50 [3]: 40 nM
- GI50 [4]: 100 nM
- GI50 [5]: 30 nM
- GI50 [6]: 40 nM
- GI50 [7]: 50 nM
- GI50 [8]: 30 nM
- IC50 (GIST-T1 cells): 347 ± 21 nM
- IC50 (GIST-R9 cells): 528 ± 59 nM
- IC50 (HMC-1.2 cells): 86 ± 9 nM

Compound: C[C@@H]1[C@@H](O)[C@H](C)C[C@@H]2C=C[C@H](C)[C@H](/C=C/C=C(\Br)C(=O)NCc3cnco3)[C@@H]12 [RS1, (2Z,4E)-2-Bromo-5-((1′S,2′S,4′aR,6′R,7′S,8′S,8′aS)-7′-hydroxy-2′,6′,8′-trimethyl-1′,2′,4′a,5′,6′,7′,8′,8′a-octahydronaphthalen-1′-yl)-N-(oxazol-5″-ylmethyl)penta-2,4-dienamide]
- GI50 [1]: 30 nM
- GI50 [2]: 5 nM
- GI50 [3]: 3 nM
- GI50 [4]: 40 nM
- GI50 [5]: 3 nM
- GI50 [6]: 10 nM
- GI50 [7]: 1 nM
- GI50 [8]: 5 nM
- inhibition of cell proliferation (in words) (GIST-T1 cells): in a concentration-dependent manner
- IC50 (GIST-T1 cells): 268 nM
- inhibition of cell proliferation (in words) (GIST-R9 cells): in a concentration-dependent manner
- IC50 (GIST-R9 cells): 363 nM
- inhibition of cell proliferation (in words) (HMC-1.2 cells): in a concentration-dependent manner
- IC50 (HMC-1.2 cells): 50 nM

Compound: C[C@@H]1[C@@H](O)[C@H](C)C[C@@H]2C=C[C@H](C)[C@H](/C=C/C=C(\Br)C(=O)NCc3cncs3)[C@@H]12 [RS2, (2Z,4E)-2-Bromo-5-((1′S,2′S,4′aR,6′R,7′S,8′S,8′aS)-7′-hydroxy-2′,6′,8′-trimethyl-1′,2′,4′a,5′,6′,7′,8′,8′a-octahydronaphthalen-1′-yl)-N-(thiazol-5″-ylmethyl)penta-2,4-dienamide]
- GI50 [1]: 30 nM
- GI50 [2]: 30 nM
- GI50 [3]: 30 nM
- GI50 [4]: 10 nM
- GI50 [5]: 1 nM
- GI50 [6]: 40 nM
- GI50 [7]: 0.3 nM
- GI50 [8]: 3 nM
- inhibition of cell proliferation (in words) (GIST-T1 cells): in a concentration-dependent manner
- IC50 (GIST-T1 cells): 128 nM
- inhibition of cell proliferation (in words) (GIST-R9 cells): in a concentration-dependent manner
- IC50 (GIST-R9 cells): 169 nM
- inhibition of cell proliferation (in words) (HMC-1.2 cells): in a concentration-dependent manner
- IC50 (HMC-1.2 cells): 37 nM

Compound: C[C@@H]1[C@@H](O)[C@H](C)C[C@@H]2C=C[C@H](C)[C@H](/C=C/C=C(\Br)C(=O)NCc3cocn3)[C@@H]12 [RS3, (2Z,4E)-2-Bromo-5-((1′S,2′S,4′aR,6′R,7′S,8′S,8′aS)-7′-hydroxy-2′,6′,8′-trimethyl-1′,2′,4′a,5′,6′,7′,8′,8′a-octahydronaphthalen-1′-yl)-N-(oxazol-4″-ylmethyl)penta-2,4-dienamide]
- GI50 [1]: 300 nM
- GI50 [2]: 80 nM
- GI50 [3]: 3 nM
- GI50 [4]: 200 nM
- GI50 [5]: 30 nM
- GI50 [6]: 50 nM
- GI50 [7]: 30 nM
- GI50 [8]: 30 nM

Compound: C[C@@H]1[C@@H](O)[C@H](C)C[C@@H]2C=C[C@H](C)[C@H](/C=C/C=C(\Br)C(=O)NCc3nccs3)[C@@H]12 [RS4, (2Z,4E)-2-Bromo-5-((1′S,2′S,4′aR,6′R,7′S,8′S,8′aS)-7′-hydroxy-2′,6′,8′-trimethyl-1′,2′,4′a,5′,6′,7′,8′,8′a-octahydronaphthalen-1′-yl)-N-(thiazol-2″-ylmethyl)penta-2,4-dienamide]
- GI50 [1]: 500 nM
- GI50 [2]: 70 nM
- GI50 [3]: 30 nM
- GI50 [4]: 300 nM
- GI50 [5]: 40 nM
- GI50 [6]: 70 nM
- GI50 [7]: 10 nM
- GI50 [8]: 40 nM
